≈ marks a conversion by molar mass, not a printed value.
How the values were obtained:
[1] = tested on: Escherichia coli; experiment: Antibacterial activity Escherichia coli ATCC 25922 assessed as inhibition of bacterial growth incubated for 24 hrs in the presence of 12.5 ug/mL Zn2+ by Muller hinton broth based dilution assay; type: functional
[2] = tested on: Pseudomonas aeruginosa; experiment: Antibacterial activity Pseudomonas aeruginosa ATCC 9027 assessed as inhibition of bacterial growth incubated for 24 hrs in the presence of 3.125 ug/mL Zn2+ by Muller hinton broth based dilution assay; type: functional
[3] = tested on: Escherichia coli; experiment: Antibacterial activity Escherichia coli ATCC 25922 assessed as inhibition of bacterial growth incubated for 24 hrs in the presence of 0.39 ug/mL Zn2+ by Muller hinton broth based dilution assay; type: functional
[4] = tested on: Staphylococcus aureus; experiment: Antibacterial activity against Methicillin-resistant Staphylococcus aureus NCTC10442 assessed as inhibition of bacterial growth incubated for 24 hrs in the presence of 0.39 ug/mL Zn2+ by Muller hinton broth based dilution assay; type: functional
[5] = tested on: Staphylococcus aureus; experiment: Antibacterial activity against Methicillin-resistant Staphylococcus aureus NCTC10442 assessed as inhibition of bacterial growth incubated for 24 hrs in the presence of 12.5 ug/mL Zn2+ by Muller hinton broth based dilution assay; type: functional
[6] = tested on: Pseudomonas aeruginosa; experiment: Antibacterial activity Pseudomonas aeruginosa ATCC 9027 assessed as inhibition of bacterial growth incubated for 24 hrs in the presence of 12.5 ug/mL Zn2+ by Muller hinton broth based dilution assay; type: functional
[7] = tested on: Acinetobacter baumannii; experiment: Antibacterial activity against Acinetobacter baumannii ATCC 17978 assessed as inhibition of bacterial growth by measuring salt resistance incubated for 24 hrs in the presence of 12.5 ug/ml Zn2+ and 24.3 ug/ml Mg2+ by Muller hinton broth based dilution assay; type: functional
[8] = tested on: Lipopolysaccharide (LPS); experiment: Displacement of BODIPY-TR-cadaverin from Pseudomonas aeruginosa Lipopolysaccharide at 4 times of MIC incubated for 30 mins in the presence of 12.5 ug/ml Zn2+ by fluorescence based microplate reader analysis relative to control
[9] = tested on: Pseudomonas aeruginosa; experiment: Antibacterial activity Pseudomonas aeruginosa ATCC 9027 assessed as inhibition of bacterial growth incubated for 24 hrs by Muller hinton broth based dilution assay; type: functional
[10] = Hemolytic activity in rabbit RBC incubated for 1 hrs in the presence of 12.5 ug/mL Zn2+ by fluorescence based microplate reader assay; type: toxicity, cell-based, Oryctolagus cuniculus, Erythrocyte; details: rabbit red blood cells (erythrocytes)
[11] = tested on: Staphylococcus aureus; experiment: Antibacterial activity against Staphylococcus aureus ATCC 29213 assessed as inhibition of bacterial growth incubated for 24 hrs in the presence of 0.78 ug/mL Zn2+ by Muller hinton broth based dilution assay; type: functional
[12] = tested on: Staphylococcus aureus; experiment: Antibacterial activity against Methicillin-resistant Staphylococcus aureus N315 assessed as inhibition of bacterial growth incubated for 24 hrs by Muller hinton broth based dilution assay; type: functional
[13] = tested on: Staphylococcus aureus; experiment: Antibacterial activity against Methicillin-resistant Staphylococcus aureus NCTC10442 assessed as inhibition of bacterial growth incubated for 24 hrs in the presence of 0.78 ug/mL Zn2+ by Muller hinton broth based dilution assay; type: functional
[14] = tested on: Lipopolysaccharide (LPS); experiment: Displacement of BODIPY-TR-cadaverin from Pseudomonas aeruginosa Lipopolysaccharide at 1 times of MIC incubated for 30 mins by fluorescence based microplate reader analysis relative to control
[15] = tested on: Acinetobacter baumannii; experiment: Antibacterial activity against Acinetobacter baumannii ATCC 17978 assessed as inhIbition of bacterial growth incubated for 24 hrs in the presence of 12.5 ug/mL Zn2+ by Muller hinton broth based dilution assay; type: functional
[16] = tested on: Cell membrane; experiment: Induction of outer membrane permeabilization in Escherichia coli ATCC 25922 assessed as increase in fluorescence intensity at 2 times to 8 times MIC measured for 1 hrs in the presence of 12.5 ug/ml Zn2+ by NPN uptake assay; details: DDE = dose-dependent effect
[17] = tested on: Staphylococcus aureus; experiment: Antibacterial activity against Staphylococcus aureus ATCC 29213 assessed as inhibition of bacterial growth incubated for 24 hrs in the presence of 50 ug/mL Zn2+ by Muller hinton broth based dilution assay; type: functional
[18] = tested on: Acinetobacter baumannii; experiment: Antibacterial activity against Acinetobacter baumannii ATCC 17978 assessed as inhIbition of bacterial growth incubated for 24 hrs by Muller hinton broth based dilution assay; type: functional
[19] = tested on: Staphylococcus aureus; experiment: Antibacterial activity against Staphylococcus aureus ATCC 29213 in cyclophosphamide immunosuppressed C57BL/6 mouse model of bacterial keratitis assessed as log reduction in viable bacterial count in infected cornea at 0.5 % pre-infected with bacteria for 24 hrs followed by topical administration of compound four times a day for 3 days in the presence of 12.5 ug/ml of Zn2+; type: functional; details: route top, time 3 day
[20] = tested on: Pseudomonas aeruginosa; experiment: Antibacterial activity Pseudomonas aeruginosa ATCC 9027 assessed as inhibition of bacterial growth incubated for 24 hrs in the presence of […] ug/mL Zn2+ by Muller hinton broth based dilution assay; type: functional
[21] = tested on: Staphylococcus aureus; experiment: Antibacterial activity against Methicillin-resistant Staphylococcus aureus NCTC10442 assessed as inhibition of bacterial growth incubated for 24 hrs by Muller hinton broth based dilution assay; type: functional
[22] = tested on: Staphylococcus aureus; experiment: Antibacterial activity against Methicillin-resistant Staphylococcus aureus N315 assessed as inhibition of bacterial growth by measuring salt resistance incubated for 24 hrs in the presence of 12.5 ug/ml Zn2+ and 175.5 ug/ml K+ by Muller hinton broth based dilution assay; type: functional
[23] = tested on: Staphylococcus aureus; experiment: Antibacterial activity against Methicillin-resistant Staphylococcus aureus NCTC10442 assessed as inhibition of bacterial growth incubated for 24 hrs in the presence of 50 ug/mL Zn2+ by Muller hinton broth based dilution assay; type: functional
[24] = tested on: Staphylococcus aureus; experiment: Antibacterial activity against Methicillin-resistant Staphylococcus aureus N315 assessed as inhibition of bacterial growth by measuring salt resistance incubated for 24 hrs in the presence of 12.5 ug/ml Zn2+ and 3220 ug/ml Na+ by Muller hinton broth based dilution assay; type: functional
[25] = tested on: Escherichia coli; experiment: Antibacterial activity Escherichia coli ATCC 25922 assessed as inhibition of bacterial growth incubated for 24 hrs in the presence of 6.25 ug/mL Zn2+ by Muller hinton broth based dilution assay; type: functional
[26] = tested on: Escherichia coli; experiment: Antibacterial activity Escherichia coli ATCC 25922 assessed as inhibition of bacterial growth incubated for 24 hrs in the presence of 3.125 ug/mL Zn2+ by Muller hinton broth based dilution assay; type: functional
[27] = tested on: Staphylococcus aureus; experiment: Antibacterial activity against Staphylococcus aureus ATCC 29213 assessed as log reduction in bacterial count at 4 times of MIC incubated for 1 hrs in the presence of 12.5 ug/ml Zn2+ by Muller hinton agar based time kill assay; type: functional
[28] = tested on: Escherichia coli; experiment: Antibacterial activity against Escherichia coli ATCC 25922 assessed as inhibition of bacterial growth by measuring salt resistance incubated for 24 hrs in the presence of 12.5 ug/ml Zn2+ and 24.3 ug/ml Mg2+ by Muller hinton broth based dilution assay; type: functional
[29] = tested on: Staphylococcus aureus; experiment: Antibacterial activity against Methicillin-resistant Staphylococcus aureus NCTC10442 assessed as inhibition of bacterial growth incubated for 24 hrs in the presence of […] ug/mL Zn2+ by Muller hinton broth based dilution assay; type: functional
[30] = tested on: Staphylococcus aureus; experiment: Antibacterial activity against Methicillin-resistant Staphylococcus aureus N315 assessed as inhibition of bacterial growth incubated for 24 hrs in the presence of 12.5 ug/mL Zn2+ by Muller hinton broth based dilution assay; type: functional
[31] = tested on: Lipopolysaccharide (LPS); experiment: Displacement of BODIPY-TR-cadaverin from Pseudomonas aeruginosa Lipopolysaccharide at 1 times of MIC incubated for 30 mins in the presence of 12.5 ug/ml Zn2+ by fluorescence based microplate reader analysis relative to control

SMILES: CC(C)=CCn1c2ccccc2c2c(OCC(O)CN(Cc3ccccn3)Cc3ccccn3)cccc21 (stereo unspecified)
- MIC [1]: 1.56 µg/mL
- MIC [2]: 12.5 µg/mL
- MIC [3]: 6.25 µg/mL
- MIC [4]: 1.56 µg/mL
- MIC [5]: 1.56 µg/mL
- MIC [6]: 3.12 µg/mL
- MIC [7]: 1.56 µg/mL
- Activity [8]: 59.5%
- MIC [9]: > 50 µg/mL
- HC50 at 1 h [10]: > 200 µg/mL
- MIC [11]: 3.12 µg/mL
- MIC [12]: 1.56 µg/mL (≈ 3.08 µM)
- MIC [13]: 1.56 µg/mL
- Activity [14]: -0.28%
- MIC [15]: 0.78 µg/mL
- Activity [16]: Dde
- MIC [17]: 0.78 µg/mL
- MIC [18]: 3.12 µg/mL (≈ 6.17 µM)
- log(activity) [19]: 6.5
- MIC [20]: 50 µg/mL
- MIC [21]: 1.56 µg/mL (≈ 3.08 µM)
- MIC [22]: 0.78 µg/mL
- MIC [23]: 0.78 µg/mL
- MIC [24]: 0.78 µg/mL
- MIC [25]: 1.56 µg/mL
- MIC [26]: 3.12 µg/mL
- log(activity) [27]: 3.03
- MIC [28]: 3.12 µg/mL
- MIC [29]: 1.56 µg/mL
- MIC [30]: 0.78 µg/mL
- Activity [31]: 20.8%
